In patent publication US20240083897A1, “GCN2 MODULATING COMPOUNDS AND USES THEREOF” (HiberCell, Inc., priority 2021, published 2024) one finds IC50 data, which are given here for 29 compounds.

Where two headings read alike, the source gives them in different places.

In the assay the target is GCN2 (Homo sapiens (Human), UniProt Q9P2K8). In words: TR-FRET biochemical assay for inhibition of GCN2. On the technique in general: Time-resolved FRET reads energy transfer from a long-lived donor to a nearby acceptor.
Where [1] appears, read: GCN2 2 nM, 100 nM GFP-eIF2a, 150 μM ATP, TR-FRET.

GCN2, sequence (Q9P2K8 whole entry): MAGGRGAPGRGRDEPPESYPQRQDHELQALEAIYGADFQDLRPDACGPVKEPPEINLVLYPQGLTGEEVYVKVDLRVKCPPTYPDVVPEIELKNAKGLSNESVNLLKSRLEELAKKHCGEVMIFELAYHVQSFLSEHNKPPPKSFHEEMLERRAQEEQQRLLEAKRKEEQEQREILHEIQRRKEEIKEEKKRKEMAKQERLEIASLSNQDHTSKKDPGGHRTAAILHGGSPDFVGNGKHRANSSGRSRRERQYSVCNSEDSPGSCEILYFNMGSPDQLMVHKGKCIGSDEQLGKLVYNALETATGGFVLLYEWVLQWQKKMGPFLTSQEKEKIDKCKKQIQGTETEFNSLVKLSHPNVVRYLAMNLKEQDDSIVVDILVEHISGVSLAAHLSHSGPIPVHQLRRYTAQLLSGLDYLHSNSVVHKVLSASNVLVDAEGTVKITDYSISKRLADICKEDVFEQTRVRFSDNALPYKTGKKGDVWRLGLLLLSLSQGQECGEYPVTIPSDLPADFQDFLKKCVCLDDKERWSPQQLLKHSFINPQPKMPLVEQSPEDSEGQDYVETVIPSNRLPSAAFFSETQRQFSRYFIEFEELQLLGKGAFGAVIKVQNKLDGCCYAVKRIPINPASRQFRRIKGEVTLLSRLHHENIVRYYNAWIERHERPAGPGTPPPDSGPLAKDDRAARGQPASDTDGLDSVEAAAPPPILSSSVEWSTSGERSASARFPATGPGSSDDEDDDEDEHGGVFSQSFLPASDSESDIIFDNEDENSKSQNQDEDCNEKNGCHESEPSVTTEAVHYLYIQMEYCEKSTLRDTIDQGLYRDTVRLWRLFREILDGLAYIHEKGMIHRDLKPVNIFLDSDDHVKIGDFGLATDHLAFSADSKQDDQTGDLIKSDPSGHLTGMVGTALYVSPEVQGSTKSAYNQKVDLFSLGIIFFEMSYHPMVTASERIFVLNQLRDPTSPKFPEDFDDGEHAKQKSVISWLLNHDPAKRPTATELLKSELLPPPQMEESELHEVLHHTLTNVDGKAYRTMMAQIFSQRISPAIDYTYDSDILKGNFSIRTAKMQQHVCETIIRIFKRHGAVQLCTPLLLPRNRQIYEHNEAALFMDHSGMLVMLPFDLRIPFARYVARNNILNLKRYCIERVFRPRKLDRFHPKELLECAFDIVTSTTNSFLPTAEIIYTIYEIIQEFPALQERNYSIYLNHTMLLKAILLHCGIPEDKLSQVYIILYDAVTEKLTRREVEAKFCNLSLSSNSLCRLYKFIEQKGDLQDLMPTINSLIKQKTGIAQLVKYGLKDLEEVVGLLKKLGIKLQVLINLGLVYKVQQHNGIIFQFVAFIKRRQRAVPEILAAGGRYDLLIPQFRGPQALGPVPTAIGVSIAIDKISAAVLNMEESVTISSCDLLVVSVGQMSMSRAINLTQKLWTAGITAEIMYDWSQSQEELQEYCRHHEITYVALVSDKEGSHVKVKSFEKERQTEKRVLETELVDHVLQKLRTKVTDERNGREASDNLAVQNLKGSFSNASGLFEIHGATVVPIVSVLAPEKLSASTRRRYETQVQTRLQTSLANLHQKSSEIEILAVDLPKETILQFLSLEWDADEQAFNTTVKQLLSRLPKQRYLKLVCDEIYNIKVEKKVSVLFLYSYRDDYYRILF

A word on the IC50: it is the concentration needed to halve the response being measured. In turn, `COc1ncc(Cl)cc1S(=O)(=O)Nc1ccc(F)c(-c2ccc3c(-c4ncc[nH]4)ncn3c2)c1C#N` [Compound 38, 5-chloro-N-[2-cyano-4-fluoro-3-[1-(1H-imidazol-2-yl)imidazo[1,5-a]pyridin-6-yl]phenyl]-2-methoxypyridine-3-sulfonamide] gave an IC50 under setting [1] of under 50 nM.
On to `CNC(=O)c1ncn2nc(-c3c(F)ccc(NS(=O)(=O)c4cc(Cl)cnc4C)c3F)ccc12` [Compound 5, 2-[3-(5-chloro-2-methylpyridine-3-sulfonamido)-2,6-difluorophenyl]-N-methylimidazo[1,5-b]pyridazine-5-carboxamide], for which the IC50 under setting [1] is under 50 nM.
`CNC(=O)c1ncn2c(OC)c(-c3c(F)ccc(NS(=O)(=O)c4cc(Cl)cnc4OC)c3F)ccc12` [Compound 15, 6-[3-(5-chloro-2-methoxypyridine-3-sulfonamido)-2,6-difluorophenyl]-5-methoxy-N-methylimidazo[1,5-a]pyridine-1-carboxamide] returned an IC50 under setting [1] of over 1000 nM.
In turn, `CNC(=O)c1ncn2cc(-c3c(F)ccc(NS(=O)(=O)c4cc(Cl)cnc4C)c3F)ncc12` [Compound 93, 6-[3-(5-chloro-2-methylpyridine-3-sulfonamido)-2,6-difluorophenyl]-N-methylimidazo[1,5-a]pyrazine-1-carboxamide] had an IC50 under setting [1] of under 50 nM.
As for `COc1ncc(Cl)cc1S(=O)(=O)Nc1ccc(F)c(-c2cn3cnc(C(=O)N[C@@H]4CCN(C)C4)c3cn2)c1F` [Compound 173-1, (R)-6-(3-((5-chloro-2-methoxypyridine)-3-sulfonamido)-2,6-difluorophenyl)-N-(1-methylpyrrolidin-3-yl)imidazo[1,5-a]pyrazine-1-carboxamide], the IC50 was in the range of 50 to 500 nM.
With `CNC(=O)c1ncn2c(F)c(-c3c(F)ccc(NS(=O)(=O)c4cc(F)cnc4C)c3F)ncc12` [Compound 184, 6-[2,6-difluoro-3-(5-fluoro-2-methylpyridine-3-sulfonamido)phenyl]-5-fluoro-N-methylimidazo[1,5-a]pyrazine-1-carboxamide], the IC50 fell in the range of 50 to 500 nM.
Under setting [1], `COc1ncc(Cl)cc1S(=O)(=O)Nc1ccc(F)c(-c2ccc3c(-c4ncc(CO)[nH]4)ncn3c2)c1F` [Compound 49, 5-chloro-N-(2,4-difluoro-3-[1-[4-(hydroxymethyl)-3H-imidazol-2-yl]imidazo[1,5-a]pyridin-6-yl]phenyl)-2-methoxypyridine-3-sulfonamide] gave an IC50 of under 50 nM.
On the same count and under the same terms, the same measure for `COc1ncc(Cl)cc1S(=O)(=O)Nc1ccc(F)c(-c2ccc3c(-c4nc(Cl)c[nH]4)ncn3c2)c1F` [Compound 52, 5-chloro-N-[3-[1-(4-chloro-1H-imidazol-2-yl)imidazo[1,5-a]pyridin-6-yl]-2,4-difluorophenyl]-2-methoxypyridine-3-sulfonamide]: under 50 nM; for `Cc1nnc(-c2ncn3cc(-c4c(F)ccc(NS(=O)(=O)c5cc(Cl)cnc5C)c4F)ncc23)[nH]1` [Compound 133, 5-chloro-N-[2,4-difluoro-3-[1-(5-methyl-4H-1,2,4-triazol-3-yl)imidazo[1,5-a]pyrazin-6-yl]phenyl]-2-methylpyridine-3-sulfonamide]: under 50 nM.
For the compound `COc1ncc(Cl)cc1S(=O)(=O)Nc1ccc(F)c(-c2ccc3c(-c4cnn[nH]4)ncn3c2)c1F` [Compound 34, 5-chloro-N-[2,4-difluoro-3-[1-(3H-1,2,3-triazol-4-yl)imidazo[1,5-a]pyridin-6-yl]phenyl]-2-methoxypyridine-3-sulfonamide], the IC50 under setting [1] is under 50 nM.
For `COc1ncc(Cl)cc1S(=O)(=O)Nc1ccc(F)c([C@@H]2CCc3c(-c4ncc[nH]4)ncn3C2)c1F` [Compound 79-2, 5-chloro-N-[2,4-difluoro-3-[(6S)-1-(1H-imidazol-2-yl)-5H,6H,7H,8H-imidazo[1,5-a]pyridin-6-yl]phenyl]-2-methoxypyridine-3-sulfonamide], the IC50 under setting [1] was under 50 nM.
Under setting [1], `COc1ncc(F)cc1S(=O)(=O)Nc1ccc(F)c([C@H]2CCc3c(-c4nnc(C)[nH]4)ncn3C2)c1F` [Compound 131-2, N-[2,4-difluoro-3-[(6R)-1-(5-methyl-4H-1,2,4-triazol-3-yl)-5H,6H,7H,8H-imidazo[1,5-a]pyridin-6-yl]phenyl]-5-fluoro-2-methoxypyridine-3-sulfonamide] displayed an IC50 of under 50 nM.
On the same count and under the same terms, the same measure for `Cc1ncc(Cl)cc1S(=O)(=O)Nc1ccc(F)c([C@H]2CCc3c(-c4ncc[nH]4)ncn3C2)c1F` (single isomer, unassigned) [Compound 84-1]: under 50 nM; for `CNC(=O)c1ncn2c(F)c(-c3c(F)ccc(NS(=O)(=O)c4cc(Cl)cnc4OC)c3F)ncc12` [Compound 160, 6-[3-(5-chloro-2-methoxypyridine-3-sulfonamido)-2,6-difluorophenyl]-5-fluoro-N-methylimidazo[1,5-a]pyrazine-1-carboxamide]: under 50 nM; for `CNC(=O)c1ncn2c(NC)c(-c3c(F)ccc(NS(=O)(=O)c4cc(Cl)cnc4OC)c3F)ccc12` [Compound 24, 6-[3-(5-chloro-2-methoxypyridine-3-sulfonamido)-2,6-difluorophenyl]-N-methyl-5-(methylamino)imidazo[1,5-a]pyridine-1-carboxamide]: over 1000 nM.
The same measure, in the same setting: the same measure for `COc1ncc(F)cc1S(=O)(=O)Nc1ccc(F)c([C@@H]2CCc3c(-c4ncc[nH]4)ncn3C2)c1F` [Compound 81-2, N-[2,4-difluoro-3-[(6S)-1-(1H-imidazol-2-yl)-5H,6H,7H,8H-imidazo[1,5-a]pyridin-6-yl]phenyl]-5-fluoro-2-methoxypyridine-3-sulfonamide]: under 50 nM; for `O=S(=O)(Nc1ccc(F)c(-c2ccc3c(-c4ncc[nH]4)ncn3c2)c1F)c1cc(F)cc2c1CCC2O` (centres unmarked) [Compound 28, N-[2,4-difluoro-3-[1-(1H-imidazol-2-yl)imidazo[1,5-a]pyridin-6-yl]phenyl]-6-fluoro-1-hydroxy-2,3-dihydro-1H-indene-4-sulfonamide]: under 50 nM.
With `COc1ncc(C#N)cc1S(=O)(=O)Nc1ccc(F)c(-c2ccc3c(-c4ccn(C)n4)ncn3c2)c1F` [Compound 53, 5-cyano-N-[2,4-difluoro-3-[1-(1-methylpyrazol-3-yl)imidazo[1,5-a]pyridin-6-yl]phenyl]-2-methoxypyridine-3-sulfonamide], the IC50 fell in the range of 50 to 500 nM.
The compound `CNC(=O)c1ncn2cc(-c3c(F)ccc(NS(=O)(=O)c4cc(Cl)cnc4OCc4ccccc4)c3F)ncc12` [Compound 183, 6-[3-[2-(benzyloxy)-5-chloropyridine-3-sulfonamido]-2,6-difluorophenyl]-N-methylimidazo[1,5-a]pyrazine-1-carboxamide] gave an IC50 under setting [1] of over 1000 nM.
Compound `CNC(=O)c1ncn2nc(-c3c(Cl)ccc(NS(=O)(=O)c4cc(Cl)cnc4C)c3F)ccc12` [Compound 138, 2-[6-chloro-3-(5-chloro-2-methylpyridine-3-sulfonamido)-2-fluorophenyl]-N-methylimidazo[1,5-b]pyridazine-5-carboxamide] displayed an IC50 under setting [1] of under 50 nM.
For `COc1ncc(F)cc1S(=O)(=O)Nc1ccc(F)c(-c2ccc3c(-c4nc(C)c(C)[nH]4)ncn3c2)c1F` [Compound 144, N-(3-(1-(4,5-dimethyl-1H-imidazol-2-yl)imidazo[1,5-a]pyridin-6-yl)-2,4-difluorophenyl)-5-fluoro-2-methoxypyridine-3-sulfonamide], the IC50 under setting [1] was under 50 nM.
Turning to `Cc1ncc(Cl)cc1S(=O)(=O)Nc1ccc(F)c(-c2ccc3c(-c4ncc[nH]4)ncn3c2F)c1F` [Compound 109, 5-chloro-N-[2,4-difluoro-3-[5-fluoro-1-(1H-imidazol-2-yl)imidazo[1,5-a]pyridine-6-yl]phenyl]-2-methylpyridine-3-sulfonamide], the IC50 under setting [1] is under 50 nM.
As to `CNC(=O)c1ncn2c(F)c(-c3c(F)ccc(NS(=O)(=O)c4cc(Cl)cnc4C)c3F)ncc12` [Compound 186, 6-[3-(5-chloro-2-methylpyridine-3-sulfonamido)-2,6-difluorophenyl]-5-fluoro-N-methylimidazo[1,5-a]pyrazine-1-carboxamide], the IC50 under setting [1] is under 50 nM.
As to `Cc1ncc(F)cc1S(=O)(=O)Nc1ccc(F)c(-c2ccc3c(-c4ccn(C)n4)ncn3c2)c1F` [Compound 54, N-[2,4-difluoro-3-[1-(1-methylpyrazol-3-yl)imidazo[1,5-a]pyridin-6-yl]phenyl]-5-fluoro-2-methylpyridine-3-sulfonamide], the 50% inhibitory concentration (IC50) fell in the range of 50 to 500 nM.
In turn, `COc1ncc(C#N)cc1S(=O)(=O)Nc1ccc(F)c(-c2ccc3c(-n4cnnn4)ncn3c2)c1F` [Compound 75, 5-cyano-N-[2,4-difluoro-3-[1-(1,2,3,4-tetrazol-1-yl)imidazo[1,5-a]pyridin-6-yl]phenyl]-2-methoxypyridine-3-sulfonamide] showed an IC50 under setting [1] of under 50 nM.
`COc1ncc(Cl)cc1S(=O)(=O)Nc1ccc(F)c(-c2cn3cnc(C(=O)NCC4CCOCC4)c3cn2)c1F` [Compound 163, 6-[3-(5-chloro-2-methoxypyridine-3-sulfonamido)-2,6-difluorophenyl]-N-(oxan-4-ylmethyl)imidazo[1,5-a]pyrazine-1-carboxamide]: the IC50 under setting [1] was under 50 nM.
In the case of `COc1ncc(F)cc1S(=O)(=O)Nc1ccc(F)c(-c2ccc3c(-c4ncc[nH]4)ncn3c2)c1F` [Compound 18, N-[2,4-difluoro-3-[1-(1H-imidazol-2-yl)imidazo[1,5-a]pyridin-6-yl]phenyl]-5-fluoro-2-methoxypyridine-3-sulfonamide], the IC50 under setting [1] was under 50 nM.
On the same count and under the same terms, the value for `CNC(=O)c1ncn2cc(-c3c(F)ccc(NS(=O)(=O)c4cc(Cl)cnc4OC)c3Cl)ccc12` [Compound 101, 6-(2-chloro-3-((5-chloro-2-methoxypyridine)-3-sulfonamido)-6-fluorophenyl)-N-methylimidazo[1,5-a]pyridine-1-carboxamide] was under 50 nM.
`COc1ncc(Cl)cc1S(=O)(=O)Nc1ccc(F)c(-c2ccc3c(C(C)O)ncn3c2)c1F` (centres unmarked) [Compound 100, 5-chloro-N-[2,4-difluoro-3-[1-(1-hydroxyethyl)imidazo[1,5-a]pyridin-6-yl]phenyl]-2-methoxypyridine-3-sulfonamide]: the IC50 lay within 500 to 1000 nM.
